Active and inactive are the calls of the source. The rule behind the calls is not given here. Where a SMILES comes first, the peptide text is derived from it. Bridges are numbered along the chain shown (N, C = ends). Roman numbers before positions name the chains, in order. [ ]: non-standard residue; d: D form. 1Nal = N[C@@H](Cc1cccc2ccccc12)C(=O)O; 2Nal = N[C@@H](Cc1ccc2ccccc2c1)C(=O)O; Agb = N=C(N)NCC[C@H](N)C(=O)O
Columns and labels:
[1] = biological target: T1, Relaxin-3 receptor 1 (Homo sapiens, UniProt Q9NSD7); experiment: Binding affinity to SmBit-tagged RXFP3 (unknown origin) expressed in HEK cells assessed as inhibition constant incubated for 1 hr by NanoBiT assay; assay type: cell-based; details: read-out: Ki
T1 sequence (Q9NSD7 whole entry): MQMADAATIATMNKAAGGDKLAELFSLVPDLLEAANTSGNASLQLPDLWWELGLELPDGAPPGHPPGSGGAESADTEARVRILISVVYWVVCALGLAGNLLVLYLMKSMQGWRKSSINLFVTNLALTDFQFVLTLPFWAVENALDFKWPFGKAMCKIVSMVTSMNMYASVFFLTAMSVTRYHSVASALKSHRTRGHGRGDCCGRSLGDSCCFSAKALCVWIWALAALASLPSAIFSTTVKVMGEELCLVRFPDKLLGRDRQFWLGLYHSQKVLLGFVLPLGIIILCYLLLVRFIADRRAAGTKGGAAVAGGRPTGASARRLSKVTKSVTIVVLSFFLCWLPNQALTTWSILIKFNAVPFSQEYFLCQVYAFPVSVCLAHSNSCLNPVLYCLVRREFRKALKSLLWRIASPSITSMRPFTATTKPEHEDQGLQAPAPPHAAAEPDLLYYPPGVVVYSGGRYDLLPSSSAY

[2] = biological target: T1, Relaxin-3 receptor 1; experiment: (§1) Agonist activity at RXFP3 (unknown origin) expressed in CHO cells co-transfected with pCRE-galactosidase reporter plasmid assessed as inhibition of forskolin-induced cAMP accumulation incubated for 6 hrs by reporter gene assay; assay type: functional, cell-based
[3] = biological target: T2, Relaxin-3 receptor 2 (Homo sapiens, UniProt Q8TDU9); experiment: Binding affinity to LgBiT-tagged RXFP4 (unknown origin) expressed in HEK cells assessed as inhibition constant incubated for 1 hr by NanoBiT assay; assay type: cell-based
T2 sequence (Q8TDU9 whole entry): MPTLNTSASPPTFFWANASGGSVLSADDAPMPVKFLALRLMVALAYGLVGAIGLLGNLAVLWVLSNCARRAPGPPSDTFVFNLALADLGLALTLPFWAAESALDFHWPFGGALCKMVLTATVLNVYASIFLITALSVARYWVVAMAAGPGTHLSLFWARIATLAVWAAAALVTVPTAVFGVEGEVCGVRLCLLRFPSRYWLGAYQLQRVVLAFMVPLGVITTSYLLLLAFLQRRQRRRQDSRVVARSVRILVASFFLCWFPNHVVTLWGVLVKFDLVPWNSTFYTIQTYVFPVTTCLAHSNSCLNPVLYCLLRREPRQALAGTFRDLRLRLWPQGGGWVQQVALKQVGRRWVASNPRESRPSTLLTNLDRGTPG

[4] = biological target: T2, Relaxin-3 receptor 2; experiment: Agonist activity at RXFP4 (unknown origin) expressed in CHO cells co-transfected with pCRE-galactosidase reporter plasmid assessed as inhibition of forskolin-induced cAMP accumulation incubated for 6 hrs by reporter gene assay; assay type: functional, cell-based
[5] = Selectivity index, ratio of Ki for binding affinity to SmBit-tagged RXFP3 (unknown origin) expressed in HEK cells assessed as inhibition constant to Ki for binding affinity to LgBiT-tagged RXFP4 (unknown origin) expressed in HEK cells assessed as inhibition constant; assay type: cell-based
[6] = biological target: T2, Relaxin-3 receptor 2; experiment: Agonist activity at RXFP4 in HEK293T cells assessed as beta-arrestin2 recruitment pretreated with coelenterazine for 10 mins followed by compound addition by BRET assay; assay type: functional, cell-based
[7] = biological target: T3, Relaxin-3 receptor 1 (Homo sapiens) (UniProt Q9NSD7); experiment: as §1; assay type: functional, cell-based
T3 sequence (whole entry): T1 sequence (Q9NSD7 whole entry)

Ki [1] [µM] | EC50 ([2]; cho, read-out: EC50) [µM] | EC50 ([2]; read-out: pEC50 (converted)) [µM] | Ki [3] [µM] | EC50 ([4]; read-out: EC50) [µM] | EC50 ([4]; read-out: pEC50 (converted)) [µM] | Activity [6] | EC50 ([2]; read-out: EC50) [µM] | Activity [7] | Activity [4] | EC50 [6] [µM] | SMILES | Ratio Ki [5]
– | – | – | 0.00347 | > 100 | > 10 | inactive | – | – | – | – | CC[C@H](C)[C@@H]1NC(=O)[C@H](Cc2ccc(O)cc2)NC(=O)[C@H]([C@@H](C)CC)NC(=O)[C@H](C(C)C)NC(=O)[C@H]([C@@H](C)O)NC(=O)[C@H](CCCNC(=N)N)NC(=O)[C@H]([C@@H](C)CC)NC(=O)[C@H](Cc2ccc(O)cc2)NC(=O)[C@H](CCC(=O)O)NC(=O)[C@H](CC(C)C)NC(=O)CNC(=O)[C@@H](NC(=O)[C@H](CC(C)C)NC(=O)[C@H](CCCNC(=N)N)NC(=O)[C@@H](NC(=O)[C@H](CO)NC(=O)[C@H](CCC(=O)O)NC(=O)[C@@H](N)CCCCN)C(C)C)CSSC[C@H](N)C(=O)N[C@@H]([C@@H](C)O)C(=O)N[C@@H](CC(=O)O)C(=O)NCC(=O)N[C@@H](C)C(=O)N[C@@H](CO)C(=O)N[C@@H](CCSC)C(=O)N[C@@H](CCCCN)C(=O)N[C@@H](CC(=O)O)C(=O)N[C@@H](CC(C)C)C(=O)N[C@@H](CO)C(=O)N[C@@H](C)C(=O)N[C@@H](CC(C)C)C(=O)N[C@H](C(=O)O)CSSC[C@@H](C(=O)N[C@@H](C)C(=O)N[C@@H](CO)C(=O)N[C@@H](CO)C(=O)N[C@@H](CCNC(=N)N)C(=O)N[C@@H](Cc2ccc3ccccc3c2)C(=O)O)NC1=O (I: H-KESVRLCGLEYIRTVIYICASS[Agb][2Nal]-OH / II: H-CTDGASMKDLSALC-OH; disulfide I:7-II:1, I:19-II:14) | –
0.426 | – | – | 0.00871 | 0.00832 | – | – | – | inactive | – | – | CC[C@H](C)[C@@H]1NC(=O)[C@H](Cc2ccc(O)cc2)NC(=O)[C@H]([C@@H](C)CC)NC(=O)[C@H](C(C)C)NC(=O)[C@H]([C@@H](C)O)NC(=O)[C@H](CCCNC(=N)N)NC(=O)[C@H]([C@@H](C)CC)NC(=O)[C@H](Cc2ccc(O)cc2)NC(=O)[C@H](CCC(=O)O)NC(=O)[C@H](CC(C)C)NC(=O)CNC(=O)[C@@H](N)CSSC[C@H](N)C(=O)N[C@@H]([C@@H](C)O)C(=O)N[C@@H](CC(=O)O)C(=O)NCC(=O)N[C@@H](CS)C(=O)N[C@H](CO)C(=O)N[C@@H](CCSC)C(=O)N[C@@H](CCCCN)C(=O)N[C@@H](CC(=O)O)C(=O)N[C@@H](CC(C)C)C(=O)N[C@@H](CO)C(=O)N[C@@H](C)C(=O)N[C@@H](CC(C)C)C(=O)N[C@H](C(=O)O)CSSC[C@@H](C(=O)N[C@@H](C)C(=O)N[C@@H](CO)C(=O)N[C@@H](CO)C(=O)N[C@@H](CCCNC(=N)N)C(=O)N[C@@H](Cc2c[nH]c3ccccc23)C(=O)O)NC1=O | 49
– | – | – | 0.0141 | > 100 | > 10 | – | – | – | – | – | CC[C@H](C)[C@@H]1NC(=O)[C@H](Cc2ccc(O)cc2)NC(=O)[C@H]([C@@H](C)CC)NC(=O)[C@H](C(C)C)NC(=O)[C@H]([C@@H](C)O)NC(=O)[C@H](CCCNC(=N)N)NC(=O)[C@H]([C@@H](C)CC)NC(=O)[C@H](Cc2ccc(O)cc2)NC(=O)[C@H](CCC(=O)O)NC(=O)[C@H](CC(C)C)NC(=O)CNC(=O)[C@@H](NC(=O)[C@H](CC(C)C)NC(=O)[C@H](CCCNC(=N)N)NC(=O)[C@@H](NC(=O)[C@H](CO)NC(=O)[C@H](CCC(=O)O)NC(=O)[C@@H](N)CCCCN)C(C)C)CSSC[C@H](N)C(=O)N[C@@H]([C@@H](C)O)C(=O)N[C@@H](CC(=O)O)C(=O)NCC(=O)N[C@@H](C)C(=O)N[C@@H](CO)C(=O)N[C@@H](CCSC)C(=O)N[C@@H](CCCCN)C(=O)N[C@@H](CC(=O)O)C(=O)N[C@@H](CC(C)C)C(=O)N[C@@H](CO)C(=O)N[C@@H](C)C(=O)N[C@@H](CC(C)C)C(=O)N[C@H](C(=O)O)CSSC[C@@H](C(=O)N[C@@H](C)C(=O)N[C@@H](CO)C(=O)N[C@@H](CO)C(=O)N[C@@H](CCNC(=N)N)C(=O)N[C@@H](Cc2c[nH]c3ccccc23)C(=O)O)NC1=O (I: H-KESVRLCGLEYIRTVIYICASS[Agb]W-OH / II: H-CTDGASMKDLSALC-OH; disulfide I:7-II:1, I:19-II:14) | –

Second part, the compound before the results:

SMILES | Ki [1] [µM] | EC50 ([2]; cho, read-out: EC50) [µM] | EC50 ([2]; read-out: pEC50 (converted)) [µM] | Ki [3] [µM] | EC50 ([4]; read-out: EC50) [µM] | EC50 ([4]; read-out: pEC50 (converted)) [µM] | Activity [6] | EC50 ([2]; read-out: EC50) [µM] | Activity [7] | Activity [4] | EC50 [6] [µM] | Ratio Ki [5]
CC[C@H](C)[C@@H]1NC(=O)[C@H](Cc2ccc(O)cc2)NC(=O)[C@H]([C@@H](C)CC)NC(=O)[C@H](C(C)C)NC(=O)[C@H]([C@@H](C)O)NC(=O)[C@H](CCCNC(=N)N)NC(=O)[C@H]([C@@H](C)CC)NC(=O)[C@H](Cc2ccc(O)cc2)NC(=O)[C@H](CCC(=O)O)NC(=O)[C@H](CC(C)C)NC(=O)CNC(=O)[C@@H](N)CSSC[C@H](N)C(=O)N[C@@H]([C@@H](C)O)C(=O)N[C@@H](CC(=O)O)C(=O)NCC(=O)N[C@@H](CS)C(=O)N[C@H](CO)C(=O)N[C@@H](CCSC)C(=O)N[C@@H](CCCCN)C(=O)N[C@@H](CC(=O)O)C(=O)N[C@@H](CC(C)C)C(=O)N[C@@H](CO)C(=O)N[C@@H](C)C(=O)N[C@@H](CC(C)C)C(=O)N[C@H](C(=O)O)CSSC[C@@H](C(=O)NCC(=O)N[C@@H](CO)C(=O)N[C@@H](CO)C(=O)N[C@@H](CCCNC(=N)N)C(=O)N[C@@H](Cc2c[nH]c3ccccc23)C(=O)O)NC1=O | 0.427 | > 10 | > 10 | 0.0182 | 0.00776 | – | – | – | – | – | – | 23.4
CC[C@H](C)[C@@H]1NC(=O)[C@H](Cc2ccc(O)cc2)NC(=O)[C@H]([C@@H](C)CC)NC(=O)[C@H](C(C)C)NC(=O)[C@H]([C@@H](C)O)NC(=O)[C@H](CCCNC(=N)N)NC(=O)[C@H]([C@@H](C)CC)NC(=O)[C@H](Cc2ccc(O)cc2)NC(=O)[C@H](CCC(=O)O)NC(=O)[C@H](CC(C)C)NC(=O)CNC(=O)[C@@H](N)CSSC[C@H](N)C(=O)N[C@@H]([C@@H](C)O)C(=O)N[C@@H](CC(=O)O)C(=O)NCC(=O)N[C@@H](CS)C(=O)N[C@H](CO)C(=O)N[C@@H](CCSC)C(=O)N[C@@H](CCCCN)C(=O)N[C@@H](CC(=O)O)C(=O)N[C@@H](CC(C)C)C(=O)N[C@@H](CO)C(=O)N[C@@H](C)C(=O)N[C@@H](CC(C)C)C(=O)N[C@H](C(=O)O)CSSC[C@@H](C(=O)NCC(=O)N[C@@H](C)C(=O)N[C@@H](CO)C(=O)N[C@@H](CCCNC(=N)N)C(=O)N[C@@H](Cc2c[nH]c3ccccc23)C(=O)O)NC1=O | 0.0759 | – | – | 0.00468 | 0.00166 | – | – | 0.155 | – | – | – | 16.2
CC[C@H](C)[C@@H]1NC(=O)[C@H](Cc2ccc(O)cc2)NC(=O)[C@H]([C@@H](C)CC)NC(=O)[C@H](C(C)C)NC(=O)[C@H]([C@@H](C)O)NC(=O)[C@H](CCCNC(=N)N)NC(=O)[C@H]([C@@H](C)CC)NC(=O)[C@H](Cc2ccc(O)cc2)NC(=O)[C@H](CCC(=O)O)NC(=O)[C@H](CC(C)C)NC(=O)CNC(=O)[C@@H](N)CSSC[C@H](N)C(=O)N[C@@H]([C@@H](C)O)C(=O)N[C@@H](CC(=O)O)C(=O)NCC(=O)N[C@@H](C)C(=O)N[C@@H](CO)C(=O)N[C@@H](CCSC)C(=O)N[C@@H](CCCCN)C(=O)N[C@@H](CC(=O)O)C(=O)N[C@@H](CC(C)C)C(=O)N[C@@H](CO)C(=O)N[C@@H](C)C(=O)N[C@@H](CC(C)C)C(=O)N[C@H](C(=O)O)CSSC[C@@H](C(=O)N[C@@H](C)C(=O)N[C@@H](CO)C(=O)N[C@@H](CO)C(=O)N[C@@H](CCNC(=N)N)C(=O)N[C@@H](Cc2cccc3ccccc23)C(=O)O)NC1=O (I: H-CGLEYIRTVIYICASS[Agb][1Nal]-OH / II: H-CTDGASMKDLSALC-OH; disulfide I:1-II:1, I:13-II:14) | – | – | – | 0.00309 | 0.00912 | – | – | – | – | inactive | – | –
CC[C@H](C)[C@@H]1NC(=O)[C@H](Cc2ccc(O)cc2)NC(=O)[C@H]([C@@H](C)CC)NC(=O)[C@H](C(C)C)NC(=O)[C@H]([C@@H](C)O)NC(=O)[C@H](CCCNC(=N)N)NC(=O)[C@H]([C@@H](C)CC)NC(=O)[C@H](Cc2ccc(O)cc2)NC(=O)[C@H](CCC(=O)O)NC(=O)[C@H](CC(C)C)NC(=O)CNC(=O)[C@@H](N)CSSC[C@H](N)C(=O)N[C@@H]([C@@H](C)O)C(=O)N[C@@H](CC(=O)O)C(=O)NCC(=O)N[C@@H](CS)C(=O)N[C@H](CO)C(=O)N[C@@H](CCSC)C(=O)N[C@@H](CCCCN)C(=O)N[C@@H](CC(=O)O)C(=O)N[C@@H](CC(C)C)C(=O)N[C@@H](CO)C(=O)N[C@@H](C)C(=O)N[C@@H](CC(C)C)C(=O)N[C@H](C(=O)O)CSSC[C@@H](C(=O)NCC(=O)NCC(=O)N[C@@H](CO)C(=O)N[C@@H](CCCNC(=N)N)C(=O)N[C@@H](Cc2c[nH]c3ccccc23)C(=O)O)NC1=O | 0.603 | – | – | 0.00229 | 0.00117 | – | – | 4.79 | – | – | 0.0224 | 263
